Experiment [1] concerns T2 cells. The experiment in a line: LDH release assay, killing of peptide-loaded T2 target cells by CD8+ T cells. It is filed as cell-based, human. To be noted: for Killing efficiency: 4 h. Here is the method: The cells cultured in Example 3 were co-cultured with T2 cells loaded with the mutant peptides of the present invention or the wild-type peptide or without a peptide. A maximum release well, a volume correction well, a medium control well, a spontaneous release well and control wells for example at different effector-to-target ratios (ratios of T cells to T2 cells) were set in this experiment. Three replicate wells were set for each group. After 4 h, 50 μl of the co-culture supernatant was taken out and added to 50 μl of LDH substrate mixture to catalyze the reaction of LDH substrate. Finally, the plates were read at a wavelength of 490 nm, with a reference wavelength of 680 nm, and the killing activity against target cells T2 was calculated based on the control wells.
The formula for calculating the killing activity is: Killing efficiency (%)=(test well−spontaneous release of effector cells−spontaneous release of target cells+medium well)/(maximum release of target cells−volume correction well−spontaneous release of target cells+medium well)×100%

In experiment [2] the test system is H2087-TLISSLMPI (SEQ ID NO: 2) subcutaneous tumor. The experiment in a line: Peptide + Freund's adjuvant vaccine in H2087-[…] subcutaneous tumor model. Type of experiment: in vivo, NOD/SCID mice. To be noted: peptide 100 μg/mouse + Freund's adjuvant s.c., 4 immunizations; vs adjuvant alone and wild-type peptide. The method, then: 600-900 ml of anticoagulated peripheral blood was collected from healthy volunteers for isolating peripheral blood mononuclear cells (PBMCs) via Ficoll. Cells were collected for use. 2×10^7 PBMCs per 0.5 ml was intraperitoneally injected into each of 300 NOD SCID mice without immune leakage to perform human immune reconstitution in NOD SCID mice. After 4 weeks, the mice were selected to be inoculated with the human lung cancer cell line.
The human non-small cell lung adenocarcinoma cell line H2087-[…] (SEQ ID NO: 2) as established in Example 7 was cultured in DMEM medium containing 10% fetal bovine serum, 100 U/mL penicillin and 100 U/mL streptomycin in an incubator at 37° C., 5% CO2. H2087-[…] (SEQ ID NO: 2) tumor cells were collected, centrifuged at 1500 rpm for 5 min, and washed 3 times with sterile physiological saline. The tumor cells were diluted appropriately. […] The long diameter a and the short diameter b of the tumor were measured with a vernier caliper every 2-3 days and the size of the tumor was calculated as a*b*b/2. The mice and tumors were weighed and recorded every day. […] The tumor volume and the survival rate of mice were recorded every 2 days.
The H2087-[…] […] The longest diameter (a) and the shortest diameter (b) of a tumor were measured with a vernier caliper every 2 days. Tumor volume was calculated as: ½×length×width^2. […]

As to “TLISSLMPI [tumor antigen peptide from CACNA1H mutation, position 1428 arginine to methionine]”, the Killing efficiency in experiment [1] (effector-to-target ratio 1:1, target T2 loaded with TLISSLMPI) is reported as 7.96%; in experiment [1] (effector-to-target ratio 1:1, target T2 loaded with wild-type TLISSLRPI), 2.23%; in experiment [1] (effector-to-target ratio 10:1, target T2 loaded with TLISSLMPI), 38.89%; in experiment [1] (effector-to-target ratio 10:1, target T2 loaded with wild-type TLISSLRPI), 4.23%. In addition, the “Specific killing of target cells (in words)” value in experiment [1] (effector-to-target ratio of 1:1 or 1:10 as printed) is “capable of killing T2 cells presenting the mutant peptide, but not the T2 cells presenting a wild-type peptide”. In addition, the “Survival period of mice” value in experiment [2] is “prolonged the survival period of mice”. In addition, the Tumor growth result in experiment [2] is recorded as “effectively inhibited tumor growth”.

For the origin of these results see patent US11548925B2, “CACNA1H-derived tumor antigen polypeptide and use thereof” (Genoimmune Therapeutics Co., Ltd., priority 2016, dated 2023).
